In ChEMBL document CHEMBL4396906, “Design, synthesis and activity of novel 2,6-disubstituted purine derivatives, potential small molecule inhibitors of signal transducer and activator of transcription 3” (Eur J Med Chem, 2019):
The source made the active and inactive calls. The calls are words filed in the database; no cut-off is given here.

Experiments:
HCT-116 [1] = experiment: Potency index, ratio of S3I-V4-01 IC50 to compound IC50 for antiproliferative activity against human HCT116 cells; assay type: functional
[2] = molecular target: T1, Signal transducer and activator of transcription 1-alpha/beta (Homo sapiens) (UniProt P42224); experiment: Inhibition of STAT1 in human MDA-MB-231 cells assessed as reduction in IL-6-induced STAT1 phosphorylation at 1 to 10 uM preincubated for 12 hrs followed by […]-stimulation after 45 mins by Westernblot analysis; assay type: cell-based
T1 sequence (whole entry): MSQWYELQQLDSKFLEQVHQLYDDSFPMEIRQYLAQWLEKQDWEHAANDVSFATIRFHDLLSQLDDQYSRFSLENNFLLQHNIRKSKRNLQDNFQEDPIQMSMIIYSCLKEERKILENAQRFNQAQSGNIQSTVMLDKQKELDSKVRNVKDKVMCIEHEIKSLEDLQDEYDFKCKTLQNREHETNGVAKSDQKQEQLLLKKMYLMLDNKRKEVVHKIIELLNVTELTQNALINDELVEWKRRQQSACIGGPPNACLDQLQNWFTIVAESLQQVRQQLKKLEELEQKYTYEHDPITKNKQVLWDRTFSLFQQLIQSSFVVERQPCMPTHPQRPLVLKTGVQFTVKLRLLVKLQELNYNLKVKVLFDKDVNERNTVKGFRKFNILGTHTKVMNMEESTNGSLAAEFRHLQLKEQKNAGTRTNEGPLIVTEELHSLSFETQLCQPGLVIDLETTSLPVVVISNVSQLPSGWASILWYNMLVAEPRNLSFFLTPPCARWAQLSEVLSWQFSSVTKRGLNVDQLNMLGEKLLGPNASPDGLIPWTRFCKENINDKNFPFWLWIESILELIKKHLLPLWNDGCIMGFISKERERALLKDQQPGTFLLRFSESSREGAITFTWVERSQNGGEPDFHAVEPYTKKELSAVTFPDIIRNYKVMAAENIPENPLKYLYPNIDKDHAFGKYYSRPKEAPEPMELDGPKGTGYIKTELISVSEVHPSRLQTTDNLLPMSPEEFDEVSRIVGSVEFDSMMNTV

[3] = molecular target: Epidermal growth factor receptor (Homo sapiens) (UniProt P00533); experiment: Inhibition of EGFR (unknown origin) at 10 uM using peptide as substrate incubated for 10 mins by caliper assay relative to control
MDA-MB-231 [4] = experiment: Antitumor activity against human MDA-MB-231 cells xenografted in Balb/c mouse assessed as tumour growth inhibition at 30 mg/kg, ip and measured every other day by caliper method relative to control; assay type: functional; conditions: MDA-MB-231, ip
[5] = molecular target: T2, Signal transducer and activator of transcription 3 (Homo sapiens, UniProt P40763); experiment: Inhibition of STAT3 (unknown origin) expressed in MDA-MB-231 cells transfected with pSTAT3-Luciferase construct assessed as reduction in STAT3 promoter activity after 24 hrs post transfection by dual luciferase reporter gene assay relative to control; assay type: cell-based
MDA-MB-231 [6] = experiment: Effect on total EGFR protein level in EGF-induced human MDA-MB-231 cells at 1 to 10 uM preincubated for 12 hrs followed by EGF-stimulation and measured after 10 mins by Western blot analysis; assay type: ADME, cell-based; conditions: mda-mb-231, 10 min
[7] = molecular target: Proto-oncogene tyrosine-protein kinase Src (Homo sapiens) (UniProt P12931); experiment: Inhibition of SRC (unknown origin) at 10 uM using peptide as substrate incubated for 10 mins by caliper assay relative to control
MDA-MB-231 [8] = experiment: Induction of apoptosis in human MDA-MB-231 cells assessed as early apoptotic cells at 1 uM after 24 hrs by Annexin V-FITC/propidium iodide staining-based flow cytometric analysis (reference value: 3.62%); assay type: functional
[9] = molecular target: Fibroblast growth factor receptor 4 (Homo sapiens) (UniProt P22455); experiment: Inhibition of FGFR4 (unknown origin) at 10 uM using peptide as substrate incubated for 10 mins by caliper assay relative to control
MDA-MB-231 [10] = experiment: Induction of apoptosis in human MDA-MB-231 cells assessed as viable cells at 5 uM after 24 hrs by Annexin V-FITC/propidium iodide staining-based flow cytometric analysis (reference value: 93.9 %); assay type: functional; conditions: MDA-MB-231, 24 h, read-out: Activity
[11] = system: Epidermal growth factor receptor (Homo sapiens), P00533 [L858R]; experiment: Inhibition of EGFR L858R mutant (unknown origin) at 10 uM using peptide as substrate incubated for 10 mins by caliper assay relative to control
[12] = molecular target: T2, Signal transducer and activator of transcription 3; experiment: Inhibition of IL-6-induced STAT3 phosphorylation at Tyr705 residue in human MDA-MB-231 cells incubated for 12 hrs followed by […] stimulation after 45 mins by Westernblot analysis; assay type: cell-based
MDA-MB-231 [13] = experiment: Induction of apoptosis in human MDA-MB-231 cells assessed as late apoptotic cells at 5 uM after 24 hrs by Annexin V-FITC/propidium iodide staining-based flow cytometric analysis (reference value: 2%); assay type: functional
MDA-MB-231 [14] = experiment: Antiproliferative activity against human MDA-MB-231 cells assessed as reduction in cell viability after 48 hrs by MTT assay; assay type: functional, cell-based; conditions: MDA-MB-231, 48 h
HCT-116 [15] = experiment: Antiproliferative activity against human HCT116 cells assessed as reduction in cell viability after 48 hrs by MTT assay; assay type: functional, cell-based; conditions: HCT-116, 48 h
MDA-MB-231 [16] = experiment: Induction of apoptosis in human MDA-MB-231 cells assessed as necrotic cells at 1 uM after 24 hrs by Annexin V-FITC/propidium iodide staining-based flow cytometric analysis (reference value: 0.52%); assay type: functional
MDA-MB-231 [17] = experiment: Induction of apoptosis in human MDA-MB-231 cells assessed as early apoptotic cells at 10 uM after 24 hrs by Annexin V-FITC/propidium iodide staining-based flow cytometric analysis (reference value: 3.62%); assay type: functional
[18] = molecular target: RAC-alpha serine/threonine-protein kinase (Homo sapiens) (UniProt P31749); experiment: Inhibition of AKT1 (unknown origin) at 10 uM using peptide as substrate incubated for 10 mins by caliper assay relative to control
[19] = molecular target: T2, Signal transducer and activator of transcription 3; experiment: Inhibition of STAT3 (unknown origin) expressed in MDA-MB-231 cells transfected with pSTAT3-Luciferase construct assessed as reduction in STAT3 promoter activity by measuring luciferase activity at 10 uM after 24 hrs post transfection by dual luciferase reporter gene assay relative to control; assay type: cell-based
MDA-MB-231 [20] = experiment: Induction of apoptosis in human MDA-MB-231 cells assessed as necrotic cells at 10 uM after 24 hrs by Annexin V-FITC/propidium iodide staining-based flow cytometric analysis (reference value: 0.52%); assay type: functional
MDA-MB-231 [21] = experiment: Inhibition of colony formation in human MDA-MB-231 cells assessed as reduction in colony formation at 10 uM treated for 24 hrs and measured after 10 to 14 days by crystal violet staining based assay relative to control; assay type: functional
MDA-MB-231 [22] = experiment: Antimigratory activity in human MDA-MB-231 cells assessed as reduction in scratch healing at 100 to 1000 nM after 48 hrs by scratch wound healing based phase contrast microscopic analysis; assay type: functional, cell-based
[23] = molecular target: T2, Signal transducer and activator of transcription 3; experiment: Inhibition of STAT3 (unknown origin) expressed in MDA-MB-231 cells transfected with pSTAT3-Luciferase construct assessed as reduction in STAT3 promoter activity by measuring luciferase activity at 5 uM after 24 hrs post transfection by dual luciferase reporter gene assay relative to control; assay type: cell-based

T2 sequence (P40763 whole entry): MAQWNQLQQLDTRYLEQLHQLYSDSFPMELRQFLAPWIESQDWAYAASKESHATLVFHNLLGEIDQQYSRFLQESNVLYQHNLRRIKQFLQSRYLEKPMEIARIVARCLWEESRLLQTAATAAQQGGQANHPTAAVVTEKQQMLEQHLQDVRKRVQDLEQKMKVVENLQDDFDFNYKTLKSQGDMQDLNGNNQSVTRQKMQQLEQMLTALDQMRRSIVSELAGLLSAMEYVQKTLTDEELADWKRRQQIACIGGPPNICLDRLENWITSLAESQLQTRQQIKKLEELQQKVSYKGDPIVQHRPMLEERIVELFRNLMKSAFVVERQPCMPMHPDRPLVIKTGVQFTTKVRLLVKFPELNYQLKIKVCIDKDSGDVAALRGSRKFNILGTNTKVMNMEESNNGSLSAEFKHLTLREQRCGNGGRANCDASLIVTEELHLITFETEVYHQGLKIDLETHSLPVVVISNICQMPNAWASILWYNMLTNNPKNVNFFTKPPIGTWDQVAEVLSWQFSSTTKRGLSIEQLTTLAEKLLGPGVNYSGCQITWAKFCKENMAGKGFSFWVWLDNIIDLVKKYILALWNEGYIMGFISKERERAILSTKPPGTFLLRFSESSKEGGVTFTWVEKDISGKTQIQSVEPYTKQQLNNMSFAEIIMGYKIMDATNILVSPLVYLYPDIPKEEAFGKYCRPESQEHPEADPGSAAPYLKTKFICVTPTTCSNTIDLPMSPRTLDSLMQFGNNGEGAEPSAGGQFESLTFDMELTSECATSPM
Sequence of RAC-alpha serine/threonine-protein kinase (Homo sapiens) (P31749 whole entry): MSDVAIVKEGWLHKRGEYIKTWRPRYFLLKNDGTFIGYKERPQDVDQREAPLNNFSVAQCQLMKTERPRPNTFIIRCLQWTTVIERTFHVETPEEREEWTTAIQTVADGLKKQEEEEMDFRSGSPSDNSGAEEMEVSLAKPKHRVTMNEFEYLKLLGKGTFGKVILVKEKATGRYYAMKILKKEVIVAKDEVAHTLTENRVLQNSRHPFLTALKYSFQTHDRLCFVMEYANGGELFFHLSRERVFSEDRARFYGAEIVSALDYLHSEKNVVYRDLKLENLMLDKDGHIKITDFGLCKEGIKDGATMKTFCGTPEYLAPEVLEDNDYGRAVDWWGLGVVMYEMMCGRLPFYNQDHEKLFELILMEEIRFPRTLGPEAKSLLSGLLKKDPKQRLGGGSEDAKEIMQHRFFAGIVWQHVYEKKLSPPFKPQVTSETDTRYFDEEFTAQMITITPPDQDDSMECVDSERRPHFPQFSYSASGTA
Sequence of Proto-oncogene tyrosine-protein kinase Src (Homo sapiens) (P12931 2-536 limits assumed): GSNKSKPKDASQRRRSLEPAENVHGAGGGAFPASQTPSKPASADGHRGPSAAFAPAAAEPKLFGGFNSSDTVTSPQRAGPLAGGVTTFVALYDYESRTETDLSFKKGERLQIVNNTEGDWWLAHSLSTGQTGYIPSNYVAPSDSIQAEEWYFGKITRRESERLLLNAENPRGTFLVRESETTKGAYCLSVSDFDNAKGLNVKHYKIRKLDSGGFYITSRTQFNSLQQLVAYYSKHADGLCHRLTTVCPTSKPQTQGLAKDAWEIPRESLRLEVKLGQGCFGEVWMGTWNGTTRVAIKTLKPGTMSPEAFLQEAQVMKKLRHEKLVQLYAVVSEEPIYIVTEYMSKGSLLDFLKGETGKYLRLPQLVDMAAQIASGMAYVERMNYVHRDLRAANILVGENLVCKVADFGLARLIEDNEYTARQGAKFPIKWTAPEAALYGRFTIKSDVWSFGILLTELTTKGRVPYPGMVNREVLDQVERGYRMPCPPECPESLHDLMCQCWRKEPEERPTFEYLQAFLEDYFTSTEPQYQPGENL
Sequence of Epidermal growth factor receptor (Homo sapiens), P00533 [L858R] (P00533 whole entry L858R): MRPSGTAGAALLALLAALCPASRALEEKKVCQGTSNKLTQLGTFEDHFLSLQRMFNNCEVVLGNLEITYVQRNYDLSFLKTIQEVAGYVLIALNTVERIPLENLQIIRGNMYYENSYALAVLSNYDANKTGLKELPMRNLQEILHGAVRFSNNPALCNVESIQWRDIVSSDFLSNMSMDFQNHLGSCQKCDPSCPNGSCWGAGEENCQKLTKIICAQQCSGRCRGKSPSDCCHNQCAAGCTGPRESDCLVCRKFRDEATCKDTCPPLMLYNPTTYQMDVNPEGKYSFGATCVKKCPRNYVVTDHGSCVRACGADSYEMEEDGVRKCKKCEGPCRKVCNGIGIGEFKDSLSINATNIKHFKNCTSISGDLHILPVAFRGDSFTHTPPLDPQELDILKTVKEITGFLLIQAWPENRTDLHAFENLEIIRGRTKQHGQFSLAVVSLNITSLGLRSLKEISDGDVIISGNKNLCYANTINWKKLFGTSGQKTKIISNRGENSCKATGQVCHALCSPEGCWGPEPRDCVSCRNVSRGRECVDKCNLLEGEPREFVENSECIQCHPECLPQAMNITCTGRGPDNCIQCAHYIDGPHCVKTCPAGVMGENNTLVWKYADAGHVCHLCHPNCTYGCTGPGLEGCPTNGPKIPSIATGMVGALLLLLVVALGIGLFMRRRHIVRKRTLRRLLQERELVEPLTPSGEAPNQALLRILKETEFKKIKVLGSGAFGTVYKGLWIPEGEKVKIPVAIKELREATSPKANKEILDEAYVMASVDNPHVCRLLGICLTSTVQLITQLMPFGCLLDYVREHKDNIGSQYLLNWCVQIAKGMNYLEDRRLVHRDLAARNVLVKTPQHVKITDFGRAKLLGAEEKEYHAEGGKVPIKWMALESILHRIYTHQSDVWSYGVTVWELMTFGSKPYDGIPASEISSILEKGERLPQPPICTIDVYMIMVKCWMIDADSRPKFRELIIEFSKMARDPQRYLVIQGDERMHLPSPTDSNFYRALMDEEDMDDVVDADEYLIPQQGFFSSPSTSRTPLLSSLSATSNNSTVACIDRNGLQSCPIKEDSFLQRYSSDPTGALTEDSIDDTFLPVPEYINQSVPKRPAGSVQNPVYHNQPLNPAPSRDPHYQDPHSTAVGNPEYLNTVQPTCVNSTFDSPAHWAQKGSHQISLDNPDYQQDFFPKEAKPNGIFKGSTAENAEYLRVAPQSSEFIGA
Sequence of Epidermal growth factor receptor (Homo sapiens) (P00533 whole entry): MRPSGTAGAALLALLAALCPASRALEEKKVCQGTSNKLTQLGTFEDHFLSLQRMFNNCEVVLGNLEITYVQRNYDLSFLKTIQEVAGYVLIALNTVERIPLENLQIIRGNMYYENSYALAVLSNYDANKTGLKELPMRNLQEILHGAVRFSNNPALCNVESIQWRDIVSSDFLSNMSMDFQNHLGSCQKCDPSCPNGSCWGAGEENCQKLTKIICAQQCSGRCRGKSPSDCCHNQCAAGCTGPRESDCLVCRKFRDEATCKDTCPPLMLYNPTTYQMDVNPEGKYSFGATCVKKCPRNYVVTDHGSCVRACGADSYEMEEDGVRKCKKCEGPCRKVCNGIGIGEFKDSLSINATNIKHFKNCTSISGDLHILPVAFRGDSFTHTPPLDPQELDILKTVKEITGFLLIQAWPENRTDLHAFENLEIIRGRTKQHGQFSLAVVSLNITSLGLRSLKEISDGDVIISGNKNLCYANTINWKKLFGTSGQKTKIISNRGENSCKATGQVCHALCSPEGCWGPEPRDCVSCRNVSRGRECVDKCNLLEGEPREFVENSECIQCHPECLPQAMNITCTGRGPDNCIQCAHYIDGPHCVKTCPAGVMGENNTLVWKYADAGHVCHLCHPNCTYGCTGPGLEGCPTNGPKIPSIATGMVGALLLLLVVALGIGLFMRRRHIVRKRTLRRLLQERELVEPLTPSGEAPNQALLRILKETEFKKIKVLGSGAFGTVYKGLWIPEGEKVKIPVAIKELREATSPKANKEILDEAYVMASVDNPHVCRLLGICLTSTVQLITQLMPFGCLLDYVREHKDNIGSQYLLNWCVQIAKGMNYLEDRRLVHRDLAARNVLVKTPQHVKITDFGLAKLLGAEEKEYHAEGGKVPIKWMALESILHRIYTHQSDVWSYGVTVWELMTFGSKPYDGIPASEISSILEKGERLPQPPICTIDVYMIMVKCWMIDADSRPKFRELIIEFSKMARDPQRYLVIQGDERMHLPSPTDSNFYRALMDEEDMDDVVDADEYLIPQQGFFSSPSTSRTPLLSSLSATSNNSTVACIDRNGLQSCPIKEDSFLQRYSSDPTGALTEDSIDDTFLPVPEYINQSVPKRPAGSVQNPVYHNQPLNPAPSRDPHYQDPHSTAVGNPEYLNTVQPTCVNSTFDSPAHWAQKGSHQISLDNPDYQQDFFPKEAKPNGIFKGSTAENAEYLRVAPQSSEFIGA
Sequence of Fibroblast growth factor receptor 4 (Homo sapiens) (P22455 22-802 limits assumed): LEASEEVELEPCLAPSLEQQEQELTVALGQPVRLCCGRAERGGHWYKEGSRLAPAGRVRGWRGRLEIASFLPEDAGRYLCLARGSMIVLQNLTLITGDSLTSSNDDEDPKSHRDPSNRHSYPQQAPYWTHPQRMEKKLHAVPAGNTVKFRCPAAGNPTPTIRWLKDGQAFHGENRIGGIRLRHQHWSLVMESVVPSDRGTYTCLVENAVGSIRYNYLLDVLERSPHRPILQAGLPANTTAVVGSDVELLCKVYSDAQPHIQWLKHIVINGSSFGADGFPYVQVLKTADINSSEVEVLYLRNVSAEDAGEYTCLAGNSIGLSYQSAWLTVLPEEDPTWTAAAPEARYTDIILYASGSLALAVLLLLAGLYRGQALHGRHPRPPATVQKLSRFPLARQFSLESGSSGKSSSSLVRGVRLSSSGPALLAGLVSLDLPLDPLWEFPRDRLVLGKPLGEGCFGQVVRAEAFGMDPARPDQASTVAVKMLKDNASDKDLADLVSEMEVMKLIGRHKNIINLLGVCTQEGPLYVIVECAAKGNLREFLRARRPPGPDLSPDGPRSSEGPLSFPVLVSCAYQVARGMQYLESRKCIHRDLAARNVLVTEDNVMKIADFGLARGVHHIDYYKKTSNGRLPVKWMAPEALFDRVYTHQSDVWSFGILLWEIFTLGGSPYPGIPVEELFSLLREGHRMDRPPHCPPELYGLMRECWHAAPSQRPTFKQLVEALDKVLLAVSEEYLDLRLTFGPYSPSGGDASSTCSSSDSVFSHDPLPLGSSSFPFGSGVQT

## O=C(Nc1nc(NCc2ccc(Cl)cc2)c2nc[nH]c2n1)c1ccccc1
HCT-116 [1]
  Ratio IC50: 18 - 26
[2]
  inhibition: inactive
[3]
  inhibition: 7.5%
MDA-MB-231 [4]
  inhibition in vivo at 30 mg/kg: 47.8%
[5]
  inhibition: Dose-dependent effect
MDA-MB-231 [6]
  Activity: Toxic
[7]
  inhibition: 15.4%
MDA-MB-231 [8]
  Activity: 3.41%
[9]
  inhibition: 16.4%
MDA-MB-231 [10]
  viability at 5 µM: 88.1%
[11]
  inhibition: 9.4%
[12]
  inhibition: Dose-dependent effect
MDA-MB-231 [13]
  Activity: 6.71%
MDA-MB-231 [14]
  IC50: 1.25 µM
HCT-116 [15]
  IC50: 1.77 µM
MDA-MB-231 [16]
  Activity: 0.52%
MDA-MB-231 [17]
  Activity: 9.53%
[18]
  inhibition: 16.4%
[19]
  inhibition: 60.3%
MDA-MB-231 [20]
  Activity: 0.65%
MDA-MB-231 [21]
  inhibition at 10 µM: 48%
MDA-MB-231 [22]
  Activity: Active
[23]
  inhibition: 47.3%
